Test results reported in US4724229A, “Arg-arg-arg-vasopressin antagonists” (Smithkline Beckman Corporation, priority 1986, dated 1988).
Numbered stars: 1 amine (or outer) side, 2 acyl side, 3 side chain; on linkers, the order of the positions; unused ones are H or OH. Bridge positions count the residues as written; N and C are the ends. Square brackets hold non-standard residues; d marks the D form. Peptide text beside a SMILES is read from it. X1 = O=C(CC1(S[*:2])CCCCC1)[*:1]

Columns and labels:
[1] = molecular target: T1, receptor in the porcine renal medullary membrane (vasopressin V2 -receptors) (Sus scrofa, UniProt P32307); test: [3H]LVP binding, porcine renal medullary membrane (Kbind); conditions: competition with [3H]LVP binding, Kb = IC50/(1 + L/KD)
T1 construct: in the porcine renal medullary membrane; from tissue; host or cells: porcine renal medullary membranes
T1 sequence (P32307 whole entry): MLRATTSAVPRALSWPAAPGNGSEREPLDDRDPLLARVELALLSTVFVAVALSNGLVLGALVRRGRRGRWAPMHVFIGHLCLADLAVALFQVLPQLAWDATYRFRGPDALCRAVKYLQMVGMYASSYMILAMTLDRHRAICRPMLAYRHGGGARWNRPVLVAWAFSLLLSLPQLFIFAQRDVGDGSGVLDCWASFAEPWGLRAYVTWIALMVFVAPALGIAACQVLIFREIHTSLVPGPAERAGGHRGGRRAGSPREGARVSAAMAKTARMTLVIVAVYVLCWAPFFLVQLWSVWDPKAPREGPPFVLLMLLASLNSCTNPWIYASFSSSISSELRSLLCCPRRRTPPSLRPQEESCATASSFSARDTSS
Procedure: (§1) V2 -antagonistic activity toward the natural anti-diuretic hormone (anti-ADH activity) is determined, in vitro, in the medullary tissue of hog or human kidneys and, in vivo, in the hydropenic rat. The in vitro assay procedures for vasopressin stimulated adenylate cyclase activation or vasopressin binding activity are described by F. Stassen et al., J. Pharmacology and Experimental Therapeutics, 223, 50-54 (1982). V1 -antagonistic activity is determined by procedures using the rat thoracic aorta tissue and plasma membranes of rat liver. These procedures are described in the noted Stassen publication and in a publication at the 1st International Conference on Diuretics, Miami, Fla., March (1984). Oxytocin antagonism is determined as described by W. Sawyer et al., Endocrinology, 106 81 (1979). | ^a Kbind is a measure of the affinity of a ligand for a receptor | in the porcine renal medullary membrane. It is derived from the equation | for competitive inhibition Kb = IC50 /(1 + L/KD) where | IC50 is the concentration of the ligand for 50% inhibition of [^ | H]LVP binding, L is the concentration of the ligand, and KD is the | dissociation constant of [^3 H]LVP.

[2] = molecular target: T2, receptor in the human liver membrane tissue (V1) (Homo sapiens, UniProt P37288); test: Binding to human liver membranes V1 (Kbind)
T2 construct: in the human liver membrane tissue; from tissue; host or cells: human liver membranes
T2 sequence (P37288 whole entry): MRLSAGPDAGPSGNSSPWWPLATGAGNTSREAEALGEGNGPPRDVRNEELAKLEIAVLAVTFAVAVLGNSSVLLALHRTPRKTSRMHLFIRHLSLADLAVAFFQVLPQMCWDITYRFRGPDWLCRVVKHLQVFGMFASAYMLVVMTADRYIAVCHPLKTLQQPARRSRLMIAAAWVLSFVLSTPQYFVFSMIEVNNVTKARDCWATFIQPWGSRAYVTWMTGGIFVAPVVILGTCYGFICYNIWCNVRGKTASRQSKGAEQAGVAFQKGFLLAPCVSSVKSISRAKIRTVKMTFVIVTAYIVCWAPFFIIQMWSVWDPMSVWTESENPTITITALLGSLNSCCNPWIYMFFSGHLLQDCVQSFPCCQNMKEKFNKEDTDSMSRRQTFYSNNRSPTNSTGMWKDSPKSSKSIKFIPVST
Procedure: as §1, with “(1979).” for “(1979). | ^a Kbind is a measure of the affinity of a ligand for a receptor | in the porcine renal medullary membrane. It is derived from the equation | for competitive inhibition Kb = IC50 /(1 + L/KD) where | IC50 is the concentration of the ligand for 50% inhibition of [^ | H]LVP binding, L is the concentration of the ligand, and KD is the | dissociation constant of [^3 H]LVP.”
^d Kbind is a measure of the affinity of a ligand for a receptor
in the human liver membrane tissue. It is derived from the equation in […]

[3] = molecular target: T3, LVP stimulated adenylate cyclase of pig kidney medullary membrane (Sus scrofa, UniProt P32307); test: Inhibition of LVP stimulated adenylate cyclase of pig kidney medullary membrane; format: biochemical
T3 construct: stimulated adenylate cyclase of pig kidney medullary membrane; from tissue; host or cells: pig kidney medullary membranes
T3 sequence (P32307 whole entry): as the sequence (P32307 whole entry) above
Procedure: V2 -antagonistic activity toward the natural anti-diuretic hormone (anti-ADH activity) is determined, in vitro, in the medullary tissue of hog or human kidneys and, in vivo, in the hydropenic rat. The in vitro assay procedures for vasopressin stimulated adenylate cyclase activation or vasopressin binding activity are described by F. Stassen et al., J. Pharmacology and Experimental Therapeutics, 223, 50-54 (1982). V1 -antagonistic activity is determined by procedures using the rat thoracic aorta tissue and plasma membranes of rat liver. These procedures are described in the noted Stassen publication and in a publication at the 1st International Conference on Diuretics, Miami, Fla., March (1984). Oxytocin antagonism is determined as described by W. Sawyer et al., Endocrinology, 106 81 (1979). | ^b Ki is the inhibition constant measured for inhibition of LVP | stimulated adenylate cyclase of pig kidney medullary membrane, and is | derived from the equation for competitive inhibition as described.

Row | Compound | Ki [1] [nM] | Ki [2] [nM] | Ki [3] [nM]
1 | CCOc1ccc(C[C@H]2NC(=O)CC3(CCCCC3)SSC[C@@H](C(=O)N[C@@H](CCCNC(=N)N)C(=O)N[C@@H](CCCNC(=N)N)C(=O)N[C@@H](CCCNC(=N)N)C(N)=O)NC(=O)[C@H](CC(N)=O)NC(=O)[C@H](C(C)C)NC(=O)[C@H](Cc3ccccc3)NC2=O)cc1 [No. 1, [1-(β-mercapto-β,β-cyclopentamethylenepropionic acid)-2-(O-ethyl)-D-tyrosine-4-valine-7-arginine-8-arginine-9-arginine]-vasopressin] ([dY](Et)FVNCRRR-NH2; linker N-5 via X1) | 2.6 | 4.41 | 1.54
2 | CCOc1ccc(C[C@H]2NC(=O)CC3(CCCCC3)SSC[C@@H](C(=O)N[C@@H](CCCNC(=N)N)C(N)=O)NC(=O)[C@H](CC(N)=O)NC(=O)[C@H](C(C)C)NC(=O)[C@H](Cc3ccccc3)NC2=O)cc1 [compound 2] ([dY](Et)FVNCR-NH2; linker N-5 via X1) | 9.1 | 1.3 | 
3 | CCOc1ccc(C[C@H]2NC(=O)CC3(CCCCC3)SSC[C@@H](C(=O)N[C@@H](CCCNC(=N)N)C(=O)N[C@@H](CCCNC(=N)N)C(N)=O)NC(=O)[C@H](CC(N)=O)NC(=O)[C@H](C(C)C)NC(=O)[C@H](Cc3ccccc3)NC2=O)cc1 [compound 3] ([dY](Et)FVNCRR-NH2; linker N-5 via X1) | 3.4 | 1.3 | 1.7
